This passage reports IC50 results from patent US10233182B2, “Substituted spirocyclic inhibitors of autotaxin” (X-Rx, Inc., priority 2014, dated 2019).

Counter-ions that a name gives are not always drawn.

The IC50 is the midpoint of a concentration-inhibition curve.

The assay addresses Autotaxin (Homo sapiens (Human), UniProt Q13822). In words: Autotaxin LPC Cascade Assay. The note with it: Autotaxin 5 nM, LPC 100 μM, choline oxidase/HRP/Ampliflu Red fluorescence read-out, 2% DMSO, RT; read-out: IC50 ATX Activity. The format is biochemical. The protocol: Autotaxin LPC Cascade Assay:
HA130 and Test Compounds:
Prepare a 1 mM stock of HA130 and a 3 mM stock of each compound in 100% DMSO. Perform a 1:3 serial dilution in DMSO (transfer 5 l of compound to 10 l of DMSO). Add 240 l of buffer to generate a top working concentration of 40 µM (HA130) and 120 µM (test compound) in 4% DMSO.
Ampliflu Red—Prepare a stock of 5 mM from 100 mM in 100% DMSO. Further dilute to a working concentration of 400 μM in buffer (8% DMSO).
Together with compound this yields a 2% DMSO final concentration.
Choline Oxidase/HRP—0.8 U/mL CO and 8 U/mL HRP.
Incubate for 10 mins at RT. Add 5 µl of LPC and incubate for 1 hr on the plate shaker. Prepare the CO/HRP and AR immediately prior to use. Add 2.5 l of CO/HRP and follow with 2.5 l AR. Note order of addition, CO/HRP mix before AR. Read fluorescence intensity (ex/em: 530/590 nm) kinetically for 30 min at RT on the Tecan M1000.
Consider `CC(C)[C@@H](NC(=O)c1cc(C(F)(F)F)ccc1F)C(=O)N1CCC2(CC1)C(=O)N(C)C(=O)N2Cc1ccc(Cl)cc1` [Example 99, (R)—N-(1-(1-(4-Chlorobenzyl)-3-methyl-2,4-dioxo-1,3,8-triazaspiro[4.5]decan-8-yl)-3-methyl-1-oxobutan-2-yl)-2-fluoro-5-(trifluoromethyl)benzamide], for which the IC50 was less than 500 nM.
For `CC(C)[C@@H](NC(=O)c1cccc(F)c1)C(=O)N1CCC2(CC1)C(=O)N(C)C(=O)N2c1ccccc1` [Example 2, (R)-3-Fluoro-N-(3-methyl-1-(3-methyl-2,4-dioxo-1-phenyl-1,3,8-triazaspiro[4.5]decan-8-yl)-1-oxobutan-2-yl)benzamide] the value was no less than 1000 nM; for `CC(C)[C@@H](NC(=O)c1cccc(C(F)(F)F)c1)C(=O)N1CCC2(CC1)C(=O)N(C)C(=O)N2c1ccccc1` [Example 33, (R)—N-(3-Methyl-1-(3-methyl-2,4-dioxo-1-phenyl-1,3,8-triazaspiro[4.5]decan-8-yl)-1-oxobutan-2-yl)-3-(trifluoromethyl)benzamide], 500 to 1000 nM.
For `CC(C)[C@@H](NC(=O)c1cc(C(F)(F)F)ccc1F)C(=O)N1CCC2(CC1)C(=O)N(C)C(=O)N2c1ccc(Cl)c(Cl)c1` [Example 183, (R)—N-(1-(1-(3,4-Dichlorophenyl)-3-methyl-2,4-dioxo-1,3,8-triazaspiro[4.5]decan-8-yl)-3-methyl-1-oxobutan-2-yl)-2-fluoro-5-(trifluoromethyl)benzamide] the value was less than 500 nM.
The same measure for `Cc1cccc(C(=O)N[C@@H](C(=O)N2CCC3(CC2)C(=O)N(C)CN3c2ccc(Br)cc2)C(C)C)c1` [Example 199, (R)—N-(1-(1-(4-Bromophenyl)-3-methyl-4-oxo-1,3,8-triazaspiro[4.5]decan-8-yl)-3-methyl-1-oxobutan-2-yl)-3-methylbenzamide]: less than 500 nM; for `CC(C)[C@@H](NC(=O)C1CCCCC1)C(=O)N1CCC2(CC1)C(=O)N(C)C(=O)N2c1ccc2[nH]ncc2c1` [Example 230, (R)—N-(1-(1-(1H-Indazol-5-yl)-3-methyl-2,4-dioxo-1,3,8-triazaspiro[4.5]decan-8-yl)-3-methyl-1-oxobutan-2-yl)cyclohexanecarboxamide]: no less than 1000 nM.
As to `CC(C)[C@@H](NC(=O)c1cc(Cl)ccc1Cl)C(=O)N1CCC2(CC1)C(=O)N(C)C(=O)N2c1ccccc1` [Example 36, (R)-2,5-Dichloro-N-(3-methyl-1-(3-methyl-2,4-dioxo-1-phenyl-1,3,8-triazaspiro[4.5]decan-8-yl)-1-oxobutan-2-yl)benzamide], the IC50 is no less than 1000 nM.
The same measure for `Cc1cccc(C(=O)N[C@@H](C(=O)N2CCC3(CC2)COC(=O)N3c2ccccc2)C(C)C)c1` [Example 217, (R)-3-Methyl-N-(3-methyl-1-oxo-1-(2-oxo-1-phenyl-3-oxa-1,8-diazaspiro[4.5]decan-8-yl)butan-2-yl)benzamide]: no less than 1000 nM; for `CCc1ccc(F)c(C(=O)N[C@@H](C(=O)N2CCC3(CC2)C(=O)N(C)CN3c2ccc(NC(C)=O)cc2)C(C)C)c1` [Example 172, (R)—N-(1-(1-(4-Acetamidophenyl)-3-methyl-4-oxo-1,3,8-triazaspiro[4.5]decan-8-yl)-3-methyl-1-oxobutan-2-yl)-5-ethyl-2-fluorobenzamide]: less than 500 nM; for `C[C@@H](NC(=O)c1cc(C(F)(F)F)ccc1F)C(=O)N1CCC2(CC1)C(=O)N(C)C(=O)N2c1ccc2[nH]ncc2c1` [Example 72, (R)—N-(1-(1-(1H-Indazol-5-yl)-3-methyl-2,4-dioxo-1,3,8-triazaspiro[4.5]decan-8-yl)-1-oxopropan-2-yl)-2-fluoro-5-(trifluoromethyl)benzamide]: no less than 1000 nM.
For `CCc1cccc(C(=O)N[C@@H](C(=O)N2CCC3(CC2)C(=O)N(C)CN3c2ccccc2)C(C)C)c1` [Example 138, (R)-3-Ethyl-N-(3-methyl-1-(3-methyl-4-oxo-1-phenyl-1,3,8-triazaspiro[4.5]decan-8-yl)-1-oxobutan-2-yl)benzamide] the value was less than 500 nM.
For `CCc1cccc(C(=O)N[C@@H](C(=O)N2CCC3(CC2)C(=O)N(C)CN3c2ccccc2)[C@H](C)OC)c1` [Example 135, 3-Ethyl-N-((2R,3S)-3-methoxy-1-(3-methyl-4-oxo-1-phenyl-1,3,8-triazaspiro[4.5]decan-8-yl)-1-oxobutan-2-yl)benzamide] the value was less than 500 nM; for `CCc1cc(F)cc(C(=O)N[C@@H](C(=O)N2CCC3(CC2)C(=O)N(C)C(=O)N3c2ccccc2)C(C)C)c1` [Example 47, (R)-3-Ethyl-5-fluoro-N-(3-methyl-1-(3-methyl-2,4-dioxo-1-phenyl-1,3,8-triazaspiro[4.5]decan-8-yl)-1-oxobutan-2-yl)benzamide], 500 to 1000 nM; for `CC(C)[C@@H](NC(=O)c1cc(OC(F)F)ccc1F)C(=O)N1CCC2(CC1)C(=O)N(C)CN2c1ccc(C(=O)O)cc1` [Example 165, (R)-4-(8-(2-(5-(Difluoromethoxy)-2-fluorobenzamido)-3-methylbutanoyl)-3-methyl-4-oxo-1,3,8-triazaspiro[4.5]decan-1-yl)benzoic Acid], less than 500 nM.
For `CC(C)[C@@H](NC(=O)c1cc(C(F)(F)F)ccc1F)C(=O)N1CCC2(CC1)C(=O)N(C)C(=O)N2c1ccc(C(=O)O)cc1` [Example 223, (R)-4-(8-(2-(2-Fluoro-5-(trifluoromethyl)benzamido)-3-methylbutanoyl)-3-methyl-2,4-dioxo-1,3,8-triazaspiro[4.5]decan-1-yl)benzoic Acid], the IC50 is less than 500 nM.
The same measure for `CC(C)[C@@H](NC(=O)c1cc(C(F)(F)F)ccc1F)C(=O)N1CCC2(CC1)C(=O)N(C)CN2c1ccc(S(C)(=O)=O)cc1` [Example 205, (R)-2-Fluoro-N-(3-methyl-1-(3-methyl-1-(4-(methylsulfonyl)phenyl)-4-oxo-1,3,8-triazaspiro[4.5]decan-8-yl)-1-oxobutan-2-yl)-5-(trifluoromethyl)benzamide]: less than 500 nM; for `CC(C)[C@@H](NC(=O)c1cc(C(F)(F)F)ccc1F)C(=O)N1CCC2(CC1)C(=O)N(C)CN2c1ccc2nccn2c1` [Example 206, (R)-2-Fluoro-N-(1-(1-(imidazo[1,2-a]pyridin-6-yl)-3-methyl-4-oxo-1,3,8-triazaspiro[4.5]decan-8-yl)-3-methyl-1-oxobutan-2-yl)-5-(trifluoromethyl)benzamide trifluoroacetic Acid Salt]: less than 500 nM; for `CC(C)[C@@H](NC(=O)c1cc(C(F)(F)F)ccc1F)C(=O)N1CCC2(CC1)C(=O)N(C)C(=O)N2Cc1cnn(C)c1` [Example 115, (R)-2-Fluoro-N-(3-methyl-1-(3-methyl-1-((1-methyl-1H-pyrazol-4-yl)methyl)-2,4-dioxo-1,3,8-triazaspiro[4.5]decan-8-yl)-1-oxobutan-2-yl)-5-(trifluoromethyl)benzamide]: no less than 1000 nM.
The same measure for `Cc1cccc(C(=O)N[C@@H](C(=O)N2CCC3(CC2)C(=O)N(C)CN3c2cccc(Br)c2)C(C)C)c1` [Example 194, (R)—N-(1-(1-(3-Bromophenyl)-3-methyl-4-oxo-1,3,8-triazaspiro[4.5]decan-8-yl)-3-methyl-1-oxobutan-2-yl)-3-methylbenzamide]: less than 500 nM.
For the compound `COC1CC(CN2C(=O)N(C)C(=O)C23CCN(C(=O)[C@H](NC(=O)c2cc(C(F)(F)F)ccc2F)C(C)C)CC3)C1` (stereo partly drawn) [Example 219, (R)-2-Fluoro-N-(1-(1-((3-methoxycyclobutyl)methyl)-3-methyl-2,4-dioxo-1,3,8-triazaspiro[4.5]decan-8-yl)-3-methyl-1-oxobutan-2-yl)-5-(trifluoromethyl)benzamide], the IC50 was no less than 1000 nM.
For `CCc1ccc(F)c(C(=O)N[C@@H](C(=O)N2CCC3(CC2)C(=O)N(CC#N)C(=O)N3c2ccc(OC)cc2)C(C)C)c1` [Example 5, (R)—N-(1-(3-(Cyanomethyl)-1-(4-methoxyphenyl)-2,4-dioxo-1,3,8-triazaspiro[4.5]decan-8-yl)-3-methyl-1-oxobutan-2-yl)-5-ethyl-2-fluorobenzamide] the value was less than 500 nM.
As for `CN1CN(c2ccc(=O)n(C)c2)C2(CCN(C(=O)[C@H](NC(=O)c3cc(C(F)(F)F)ccc3F)C3CCCC3)CC2)C1=O` [Example 208, (R)—N-(1-Cyclopentyl-2-(3-methyl-1-(1-methyl-6-oxo-1,6-dihydropyridin-3-yl)-4-oxo-1,3,8-triazaspiro[4.5]decan-8-yl)-2-oxoethyl)-2-fluoro-5-(trifluoromethyl)benzamide], the IC50 was less than 500 nM.
On to `CC(C)[C@@H](NC(=O)c1cc(Cl)ccc1Cl)C(=O)N1CCC2(CC1)C(=O)N(C)C(=O)N2c1ccc2[nH]ncc2c1` [Example 65, (R)—N-(1-(1-(1H-Indazol-5-yl)-3-methyl-2,4-dioxo-1,3,8-triazaspiro[4.5]decan-8-yl)-3-methyl-1-oxobutan-2-yl)-2,5-dichlorobenzamide], for which the IC50 was no less than 1000 nM.
On to `CC(C)[C@@H](NC(=O)c1cc(C(F)(F)F)ccc1F)C(=O)N1CCC2(CC1)C(=O)N(C)C(=O)N2C1CC1` [Example 76, (R)—N-(1-(1-Cyclopropyl-3-methyl-2,4-dioxo-1,3,8-triazaspiro[4.5]decan-8-yl)-3-methyl-1-oxobutan-2-yl)-2-fluoro-5-(trifluoromethyl)benzamide], for which the IC50 was in the range of 500 to 1000 nM.
